IC50 data for 16 compounds are collected here from patent publication US8592486B2, “Compounds for inflammation and immune-related uses” (Synta Pharmaceuticals Corp., priority 2005, dated 2013).

Counter-ions that a name gives are not always drawn.

The subject of the first assay is IL-2 production. Kind of assay: Inhibition of IL-2 production in PHA-activated Jurkat cells (ELISA). It counts as cell-based, human. The note with it: Homo sapiens, Jurkat, 20 h, Jurkat cells, PHA 2.5 μg/mL, 20 hours, IL-2 ELISA; read-out: IC50 (inhibition of IL-2 production). As to the method:
Jurkat cells were placed in a 96 well plate (0.5 million cells per well in 1% FBS medium) then a test compound of this invention was added at different concentrations. After 10 minutes, the cells were activated with PHA (final concentration 2.5 μg/mL) and incubated for 20 hours at 37° C. under CO2. The final volume was 200 μL. Following incubation, the cells were centrifuged and the supernatants collected and stored at −70° C. prior to assaying for IL-2 production. A commercial ELISA kit (IL-2 Eli-pair, Diaclone Research, Besancon, France) was used to detect production of IL-2, from which dose response curves were obtained. The IC50 value was calculated as the concentration at which 50% of maximum IL-2 production after stimulation was inhibited versus a non-stimulation control.
In general terms: An ELISA detects its analyte on a solid surface through an enzyme-linked reagent.
In general, IC50 refers to the concentration that gives 50% inhibition. In the case of `Cc1ccc(-c2ncnn2C)cc1-c1ccc(NC(=O)c2ccncc2F)cc1` [Compound 67, 3-Fluoro-N-[2′-methyl-5′-(2-methyl-2H-[1,2,4]triazol-3-yl)-biphenyl-4-yl]-isonicotinamide], the IC50 stood at 27 nM. On the same count and under the same terms, then `Cc1ccc(-c2cccnc2)cc1-c1ccc(NC(=O)c2snnc2C)cc1` [Compound 21, 4-Methyl-[1,2,3]thiadazole-5-carboxylic acid [2′-methyl-5′-(pyridin-3-yl)-biphenyl-4-yl]-amide], with 6 nM; and `CSc1nnc(-c2ccc(C)c(-c3ccc(NC(=O)c4c(F)cccc4F)cc3)c2)n1C` [Compound 72, 2,6-Difluoro-N-[2′-methyl-5′-(4-methyl-5-methylsulfanyl-4H-[1,2,4]triazol-3-yl)-biphenyl-4-yl]-benzamide], with > 1000 nM. The same measure, in the same setting: then `Cc1ccc(-c2nnc(N)s2)cc1-c1ccc(NC(=O)c2c(F)cccc2F)cc1` [Compound 62, 2,6-Difluoro-N-[2′-methyl-5′-(5-amino-[1,3,4]thiadiazol-2-yl)-biphenyl-4-yl]-benzamide], with 19 nM; and `Cc1cnccc1C(=O)Nc1ccc(-c2cc(-c3nnco3)ccc2C)cc1` [Compound 70, 3-Methyl-N-[2′-methyl-5′-([1,3,4]oxadiazol-2-yl)-biphenyl-4-yl]-isonicotinamide], with 13 nM. In the case of `Cc1ccc(-c2ccno2)cc1-c1ccc(NC(=O)c2snnc2C)cc1` [Compound 33, 4-Methyl-[1,2,3]thiadazole-5-carboxylic acid [2′-methyl-5′-(isoxazol-5-yl)-biphenyl-4-yl]-amide], the IC50 was determined as 4 nM.

Take `O=C(Nc1ccc(-c2cc(-c3nccs3)ccc2Cl)cc1)c1ccncc1F` [Compound 58, 3-Fluoro-N-[5′-(thiazol-2-yl)-2′-chloro-biphenyl-4-yl]-isonicotinamide]: the IC50 was 2 nM. Still for that read-out and setting: then `Cc1ccc(-c2nccs2)cc1-c1ccc(NC(=O)c2ccncc2F)cc1` [Compound 54, 3-Fluoro-N-[5′-(thiazol-2-yl)-2′-methyl-biphenyl-4-yl]-isonicotinamide], with 12 nM; and `Cc1cnccc1C(=O)Nc1ccc(-c2cc(-c3ncco3)ccc2Cl)cc1` [Compound 17, 3-Methyl-N-(2′-chloro-5′-oxazol-2-yl-biphenyl-4-yl)-isonicotin-amide, hydrochloride], with 7 nM.

As to `Cc1ccc(-c2nnco2)cc1-c1ccc(NC(=O)c2c(F)cccc2F)cc1` [Compound 69, 2,6-Difluoro-N-[2′-methyl-5′-([1,3,4]oxadiazol-2-yl)-biphenyl-4-yl]-benzamide], the IC50 stood at 5 nM. On the same count and under the same terms, then `Cc1cnccc1C(=O)Nc1ccc(-c2cc(-c3ncco3)ccc2N(C)C)cc1` [Compound 48, 3-Methyl-N-[5′-(oxazol-2-yl)-2′-(N,N-dimethylamino)-biphenyl-4-yl]-isonicotinamide], with 320 nM; and `Cc1ccc(-c2nncs2)cc1-c1ccc(NC(=O)c2c(F)cccc2F)cc1` [Compound 59, 2,6-Difluoro-N-[2′-methyl-5′-([1,3,4]thiadiazol-2-yl)-biphenyl-4-yl]-benzamide], with 3 nM; and `Cc1ccc(-c2nncs2)cc1-c1ccc(NC(=O)c2ccncc2F)cc1` [Compound 61, 3-Fluoro-N-[5′-([1,3,4]thiadiazol-2-yl)-2′-methyl-biphenyl-4-yl]-isonicotinamide], with 6 nM.

The assay is the same for the next values; noted with them: Homo sapiens, Jurkat, 20 h, read-out: IC50 (inhibition of IL-2 production).
On to `Cc1ccc(-c2nnn[nH]2)cc1-c1ccc(NC(=O)c2c(F)cccc2F)cc1` [Compound 65, 2,6-Difluoro-N-[2′-methyl-5′-(1H-tetrazol-5-yl)-biphenyl-4-yl]-benzamide, sodium salt], for which the IC50 is > 1000 nM.

Staying with this assay, now noted: Homo sapiens; Jurkat cells, PHA 2.5 μg/mL, 20 hours, IL-2 ELISA; read-out: IC50 (inhibition of IL-2 production).
Turning to `Cc1cnccc1C(=O)Nc1ccc(-c2cc(-c3ncco3)ccc2C)cc1` [Compound 7, 3-Methyl-N-(2′-methyl-5′-oxazol-2-yl-biphenyl-4-yl)-isonicotinamide, hydrochloride], the IC50 came out at 8 nM. As for `Cc1cnccc1C(=O)Nc1ccc(-c2cc(-c3cnco3)ccc2C)cc1` [Compound 29, 3-Methyl-N-[5′-(oxazol-5-yl)-2′-methyl-biphenyl-4-yl]-isonicotinamide, HCl salt], the IC50 is 9 nM.
